What was measured:
[1] = test system: subjects with PFIC; test: Treatment-emergent adverse events (TEAEs), MARCH-PFIC Phase 3 study; format: in vivo
From the text: A TEAE can therefore be any unfavorable and unintended sign (including an abnormal laboratory finding), symptom, or disease temporally associated with the use of a medicinal (investigational) product, whether or not related to the medicinal (investigational) product (ICH Guidance E2A 1995). All TEAEs are collected from the time the informed consent is signed until the defined follow-up period. This includes events occurring during the screening phase of the study, regardless of whether or not study medication is administered.
A serious adverse event (SAE) is any untoward medical occurrence (whether considered to be related to study medication or not) that at any dose: 1) Results in death; 2) Is life-threatening; 3) Requires inpatient hospitalization or prolongation of existing hospitalization; 4) Results in persistent or significant disability/incapacity; or 5) Is an important medical event.
All SAEs (regardless of relationship to study) are collected from the time the subject signs the informed consent until the defined follow-up period and must be reported within 24 hours of the first awareness of the event.

[2] = test system: subjects with PFIC; test: Total and direct bilirubin, MARCH-PFIC Phase 3 study
From the text: Estimates are from a mixed model for repeated measures (MMRM) with change from baseline as the dependent variable and fixed categorical effects of treatment group, time period and treatment-by-time period interaction as well as the continuous fixed covariates of average baseline score and baseline score-by-time period interaction. […] Average of time periods Weeks 15-18, 19-22, and 2326 obtained from the MMRM as an equally weighted average of the 3 individual visit-specific estimates.
Methods: MARCH enrolled patients with a genetic diagnosis of PFIC, pruritus, and elevated sBA. Patients were randomized to MRX 57011 g/kg BID or placebo (PBO) for 26 weeks. Changes were determined as the difference between MRX and PBO groups for Change from Baseline (CFB) to the average of the final 3 measurements (Weeks 18, 22 and 26) using a mixed-effects model with recurrent measurements. Total/direct bilirubin (TB/DB) categories were defined as normal (≤1.2/0.3 mg/dL) or abnormal (>1.2/0.3 mg/dL).

[3] = test system: subjects with PFIC; test: Clinician Scratch Scale (CSS) score, MARCH-PFIC Phase 3 study; format: in vivo, human
From the text: Clinician Scratch Scale (CSS). The CSS provides an assessment of itch severity. The clinician's assessment of the subject's pruritus focused on scratching and visible damage to the skin as a result of scratching as observed by the physician. The CSS uses a 5-point scale, in which 0 designates no evidence of scratching and 4 designates cutaneous mutilation with bleeding, hemorrhage and scarring. A clinician's assessment of pruritus made by the principal investigator or sub-investigator using the CSS was recorded at screening, baseline, and at additional study visits as outline in Table 2.
For the PFIC Cohort, PFIC Type is included in the model as an additional covariate.
Clinician Scratch Scale (CSS) was scored on a 0-4 scale, where 0=none and 4=cutaneous mutilations, haemorrage, and scarring (worst scratching).

[4] = Growth z-scores (height, weight), MARCH-ON long-term extension; format: in vivo, human
From the text: (§1) Eighty-five patients from MARCH trial enrolled in MARCH-ON (Table 10, FIG. 29A). Forty-seven patients had received Maralixibat (MRX-MRX) and 38 had received placebo (PBO-MRX) during MARCH trial.
(§2) PFIC subtypes of patients included in the study were: non-truncated bile salt export pump (nt-B SEP, n=27), familial intrahepatic cholestasis-associated protein type 1 (F1C1, n=13); multidrug-resistance 3 protein (MDR3, n=9); tight junction protein 2 (TJP2, n=6); myosin VB (MYO5B, n=2); heterozygosis (n=2); truncated B SEP (t-B SEP, n=9); variant not found (n=8), fluctuating sBA (n=2); and surgery (n=7). Efficacy analyses included n=33 in the MRX-MRX group and n=24 in the PRO-MRX group. Subtypes nt-BSEP, F1C1, MDR3, TJP2, and MYO5B were included in the efficacy analyses. Baseline was defined as the start of maralixibat (MRX) treatment for each group.
(§3) Methods: Long-term maintenance of response was assessed for patients who were originally randomized to receive MRX in MARCH and continued with treatment in MARCH-ON (MRX-MRX group; n=33). MRX response was assessed for patients who received PBO in the MARCH study and switched to open-label MRX in MARCH-ON (PBO-MRX group; n=24). Assessments included: pruritus measured by 0-4 scale of ItchRO[Obs], sBA, bilirubin, and growth z-scores, as well as incidence of treatment-emergent adverse events(TEAEs). Baseline (BL) was defined as the start of MRX for each group.

[5] = test system: patients with PFIC; test: Bilirubin, MARCH-ON long-term extension; format: in vivo, human; conditions: MRX-MRX group; Baseline through Week 52
From the text: as §1, §2
as §3, with “Baseline (BL) was defined as the start of MRX for each group.” left out

[6] = MARCH, all PFIC cohorts, Maralixibat (n = 47)
[7] = MARCH, all PFIC cohorts, Maralixibat (n = 47), listed as Maralixibat
[8] = among the 8 participants receiving MRX who had transaminase elevations
[9] = BSEP deficiency cohort, FIG. 20A
[10] = BSEP deficiency cohort, FIG. 22A
[11] = MRX group, post-hoc analysis, FIG. 38A-B
[12] = individuals with abnormal Baseline bilirubin, FIG. 37B
[13] = BSEP deficiency cohort, FIG. 19A
[14] = MRX-MRX group (n = 20), Baseline to Week 52
[15] = PBO-MRX group (n = 15), Baseline to Week 26

Q: What does the source list for `CCCCC1(CCCC)CS(=O)(=O)c2ccc(N(C)C)cc2[C@@H](c2ccc(OCc3ccc(C[N+]45CCN(CC4)CC5)cc3)cc2)[C@H]1O` [maralixibat, 1-(4-((4-((4R,5R)-3,3-dibutyl-7-(dimethylamino)-4-hydroxy-1,1-dioxido-2,3,4,5-tetrahydrobenzo[b]thiepin-5-yl)phenoxy)methyl)benzyl)-1,4-diazabicyclo[2.2.2]octan-1-ium]?
A: median duration of diarrhea ([1]; MARCH): 5.5 days; patients who discontinued MRX due to transaminase elevation ([1]; MARCH): No patients; tolerability ([1]; MARCH): well-tolerated; Any TEAE, % [1, 6]: (100%); Diarrhoea related to study drug, % [1, 6]: (27.7%); GI disorders (most common TEAEs), % [1, 6]: 74.5%; GI events potentially related to study drug, % [1, 6]: (29.8%); Grade 3/4 TEAE, % [1, 6]: (6.4%); Serious TEAE (SAE), % [1, 6]: 10.6%; TEAE leading to discontinuation, % [1, 6]: (2.1%); TEAE potentially related to study drug, % [1, 6]: (38.3%); Serious TEAE (SAE), % ([1]; MARCH, all PFIC cohorts, Maralixibat (n = 47), listed as MRX): 10.6%; Diarrhoea, % [1, 7]: (57.4%); Serious TEAE (SAE), % [1, 7]: (10.6%); Constipation, % ([1]; MARCH, MRX (n = 47)): (8.5) %; Gastroenteritis, % ([1]; MARCH, MRX (n = 47)): (6.4) %; Haematochezia, % ([1]; MARCH, MRX (n = 47)): (6.4) %; Increased ALT, % ([1]; MARCH, MRX (n = 47)): (12.8) %; Vomiting, % ([1]; MARCH, MRX (n = 47)): (6.4) %; participants with resolution of the transaminase elevation without drug interruption [1, 8]: 6; patients with ongoing stable transaminase elevation even after drug interruption or dose reduction [1, 8]: 2; CFB in total bilirubin (TB) ([2]; All-PFIC cohort (MRX n = 33), average of Weeks 18, 22 and 26, FIG. 36A): -1.1 mg/dL; CFB in direct bilirubin (DB) ([2]; All-PFIC cohort (MRX n = 33), average of Weeks 18, 22 and 26, FIG. 36B): -0.8 mg/dL; TB group difference MRX vs PBO ([2]; All-PFIC cohort, average of Weeks 18, 22 and 26, FIG. 36A): 2.0; DB group difference MRX vs PBO ([2]; All-PFIC cohort, average of Weeks 18, 22 and 26, FIG. 36B): 1.5; difference in total bilirubin improvement vs placebo group [2, 9]: 1.585 mg/dL; improvement in (reduction of) total bilirubin relative to baseline [2, 9]: about 1.2 mg/dL; difference in direct bilirubin improvement vs placebo group [2, 10]: 1.196 mg/dL; improvement in (reduction of) direct bilirubin relative to baseline [2, 10]: over 0.8 mg/dL; TB normalized, patients / patients with abnormal Baseline values [2, 11]: 10/25; patients who went from normal to abnormal TB [2, 11]: 0/7; DB frequency of normalization ([2]; MRX group, post-hoc analysis, normal ≤0.3 mg/dL, FIG. 39): 38%; TB normalized, % of patients with abnormal Baseline values ([2]; MRX group, post-hoc analysis, normal ≤1.2 mg/dL, FIG. 38A-B): 40%; difference in total bilirubin improvement vs placebo group ([2]; PFIC cohort, FIG. 20B): 2.000 mg/dL; improvement in (reduction of) total bilirubin relative to baseline ([2]; PFIC cohort, FIG. 20B): about 1.2 mg/dL; difference in direct bilirubin improvement vs placebo group ([2]; PFIC cohort, FIG. 22B): 1.608 mg/dL; improvement in (reduction of) direct bilirubin relative to baseline ([2]; PFIC cohort, FIG. 22B): about 0.9 mg/dL; total bilirubin lower than baseline over time ([2]; Week 18 and later points in time, FIG. 21A-B): at least 1.0 mg/dL; direct bilirubin lower than baseline over time ([2]; Week 18 and later points in time, FIG. 23A-B): at least 1.0 mg/dL; CFB in direct bilirubin (DB) [2, 12]: -0.8 mg/dL; DB group difference MRX vs PBO [2, 12]: −1.8; difference in CSS improvement vs placebo group [3, 13]: 1.328 point; improvement in CSS score relative to baseline [3, 13]: about 1.7 points; difference in CSS improvement vs placebo group ([3]; PFIC cohort, FIG. 19B): 1.247 point; improvement in CSS score relative to baseline ([3]; PFIC cohort, FIG. 19B): about 1.8 points; Height Z-score, mean change from Baseline [4, 14]: +0.54; Weight Z-score, mean change from Baseline [4, 14]: +0.44; Height Z-score, mean change from Baseline [4, 15]: +0.46; Weight Z-score, mean change from Baseline [4, 15]: +0.09; bilirubin, change from Baseline [5]: -2.64 mg/dL

Reference: patent publication US20240173317A1, “METHODS FOR TREATING PROGRESSIVE FAMILIAL INTRAHEPATIC CHOLESTASIS” (MIRUM PHARMACEUTICALS, INC., priority 2022, published 2024)
